The molecules below were run on Ras processing (assay: COS IC50, cell-based assay: COS cells activity inhibition of Ras processing).
Experimental: 2. Cell-based assay. COS IC50 values refer to the COS cells activity inhibition of Ras processing, are determined by the methods disclosed in […] or WO 95/10516.

How did the IC50 turn out when `N#CN=C(Nc1ccc2c(c1)COCO2)N1CCC(=C2c3ccc(Cl)cc3CCc3cccnc32)CC1` [Example 10] was run?
The IC50 was 250 nM.

With `N#CN=C(Nc1ccc2c(c1)COCO2)N1CCC(=C2c3ccc(Cl)cc3CCc3cc(Br)cnc32)CC1` [Example 11] as the molecule, how does the IC50 read?
The IC50 was 250 nM.

Which IC50 does the source give for `N#CN=C(Nc1ccccc1)N1CCC(=C2c3ccc(Cl)cc3CCc3cccnc32)CC1` [Example 14] here?
The IC50 was 2500 nM.

Which IC50 does the source give for `CCOC(=O)N1CCC(NC(=NC#N)N2CCC(=C3c4ccc(Cl)cc4CCc4cc(Br)cnc43)CC2)CC1` [Example 15] here?
The IC50 was 560 nM.

Which IC50 does the source give for `CCOC(=NC#N)N1CCC(=C2c3ccc(Cl)cc3CCc3cc(Br)cnc32)CC1` [Example 16] here?
The IC50 was 2300 nM.

With `CNC(=NC#N)N1CCC(=C2c3ccc(Cl)cc3CCc3cc(Br)cnc32)CC1` [Example 17] as the molecule, how does the IC50 read?
Its IC50 is 5000 nM.

How did the IC50 turn out when `N#CN=C(Nc1ccc2c(c1)OCO2)N1CCC(=C2c3ccc(Cl)cc3CCc3cc(Br)cnc32)CC1` [Example 18] was run?
Its IC50 is 800 nM.

Which IC50 does the source give for `N#CN=C(NC1CCCCC1)N1CCC(=C2c3ccc(Cl)cc3CCc3cc(Br)cnc32)CC1` [Example 19] here?
The IC50 was 480 nM.

For `CCCCNC(=NC#N)N1CCC(=C2c3ccc(Cl)cc3CCc3cc(Br)cnc32)CC1` [Example 20], which IC50 is on record?
The IC50 was 1600 nM.

With `N#CN=C(Nc1cccnc1)N1CCC(=C2c3ccc(Cl)cc3CCc3cc(Br)cnc32)CC1` [Example 23] as the molecule, how does the IC50 read?
The IC50 was 2400 nM.

Which IC50 does the source give for `N#CN=C(Nc1ccc2c(c1)COCO2)N1CCN(C2c3ccc(Cl)cc3CCc3cc(Br)cnc32)CC1` (stereo not drawn) [Example 24] here?
The IC50 was under 250 nM.

For `COc1ccc(NC(=NC#N)N2CCC(=C3c4ccc(Cl)cc4CCc4cc(Br)cnc43)CC2)cc1` [Example 25], which IC50 is on record?
The IC50 was 270 nM.

How did the IC50 turn out when `N#CN=C(NCc1ccccn1)N1CCC(=C2c3ccc(Cl)cc3CCc3cc(Br)cnc32)CC1` [Example 26] was run?
Its IC50 is 750 nM.

For `N#CN=C(NCCO)N1CCC(=C2c3ccc(Cl)cc3CCc3cc(Br)cnc32)CC1` [Example 27], which IC50 is on record?
Its IC50 is 2600 nM.

How did the IC50 turn out when `N#CN=C(Nc1ccc(F)cc1)N1CCC(=C2c3ccc(Cl)cc3CCc3cc(Br)cnc32)CC1` [Example 29] was run?
Its IC50 is 570 nM.

`N#CN=C(NCCc1ccncc1)N1CCC(=C2c3ccc(Cl)cc3CCc3cc(Br)cnc32)CC1` [Example 36] was tested. Which IC50 did it give?
Its IC50 is 280 nM.

For `N#CN=C(Nc1ccc(C#N)cc1)N1CCC(=C2c3ccc(Cl)cc3CCc3cc(Br)cnc32)CC1` [Example 37], which IC50 is on record?
Its IC50 is 280 nM.

For `N#CN=C(NCc1cccnc1)N1CCC(=C2c3ccc(Cl)cc3CCc3cc(Br)cnc32)CC1` [Example 41], which IC50 is on record?
The IC50 was 700 nM.

For `N#CN=C(NCCCn1ccnc1)N1CCC(=C2c3ccc(Cl)cc3CCc3cc(Br)cnc32)CC1` [Example 42], which IC50 is on record?
Its IC50 is 4000 nM.

For `N#CN=C(NCc1ccc[n+]([O-])c1)N1CCC(=C2c3ccc(Cl)cc3CCc3cc(Br)cnc32)CC1` [Example 60], which IC50 is on record?
The IC50 was over 1000 nM.

Which IC50 does the source give for `N#CN=C(NCc1cc[n+]([O-])cc1)N1CCC(=C2c3ccc(Cl)cc3CCc3cc(Br)cnc32)CC1` [Example 70] here?
Its IC50 is 16000 nM.

The molecules below were run against T1, farnesyl protein transferase (Rattus norvegicus, UniProt Q02293+Q04631) (assay: FPT IC50 (inhibition of farnesyl protein transferase, in vitro enzyme assay; Ras-CVLS farnesylation by partially purified rat brain FPT)).
T1 construct: partially purified rat brain farnesyl protein transferase (FPT); from tissue; host or cells: rat brain
Type: biochemical
Experimental: 1. In vitro enzyme assays: FPT IC50 (inhibition of farnesyl protein transferase, in vitro enzyme assay) are determined by the methods disclosed in […] or WO 95/10516.

`N#CN=C(Nc1ccc2c(c1)COCO2)N1CCC(=C2c3ccc(Cl)cc3CCc3cccnc32)CC1` [Example 10] was tested. Which IC50 did it give?
The IC50 was 18 nM.

Which IC50 does the source give for `CSC(=NC#N)N1CCC(=C2c3ccc(Cl)cc3CCc3cc(Br)cnc32)CC1` [Example 12] here?
Its IC50 is under 410 nM.

Which IC50 does the source give for `N#CN=C(N1CCOCC1)N1CCC(=C2c3ccc(Cl)cc3CCc3cc(Br)cnc32)CC1` [Example 13] here?
The IC50 was 720 nM.

Which IC50 does the source give for `CCOC(=NC#N)N1CCC(=C2c3ccc(Cl)cc3CCc3cc(Br)cnc32)CC1` [Example 16] here?
The IC50 was 54 nM.

Which IC50 does the source give for `N#CN=C(NC1CCN(Cc2ccccc2)CC1)N1CCC(=C2c3ccc(Cl)cc3CCc3cc(Br)cnc32)CC1` [Example 22] here?
Its IC50 is 170 nM.

`N#CN=C(Nc1cccnc1)N1CCC(=C2c3ccc(Cl)cc3CCc3cc(Br)cnc32)CC1` [Example 23] was tested. Which IC50 did it give?
Its IC50 is 140 nM.

`N#CN=C(Nc1ccc2c(c1)COCO2)N1CCN(C2c3ccc(Cl)cc3CCc3cc(Br)cnc32)CC1` (stereo not drawn) [Example 24] was tested. Which IC50 did it give?
The IC50 was 10 nM.

How did the IC50 turn out when `N#CN=C(NCCO)N1CCC(=C2c3ccc(Cl)cc3CCc3cc(Br)cnc32)CC1` [Example 27] was run?
Its IC50 is 17 nM.

Which IC50 does the source give for `CN1CCN(NC(=NC#N)N2CCC(=C3c4ccc(Cl)cc4CCc4cc(Br)cnc43)CC2)CC1` [Example 31] here?
The IC50 was 260 nM.

With `N#CN=C(N1CCCCC1)N1CCC(=C2c3ccc(Cl)cc3CCc3cc(Br)cnc32)CC1` [Example 32] as the molecule, how does the IC50 read?
Its IC50 is 270 nM.

Which IC50 does the source give for `N#CN=C(N)N1CCC(=C2c3ccc(Cl)cc3CCc3cc(Br)cnc32)CC1` [Example 33] here?
The IC50 was 2800 nM.

Which IC50 does the source give for `N#CN=C(Nc1ccc2c(c1)COCO2)N1CCC(C2c3ccc(Cl)cc3C=Cc3cc(Br)cnc32)CC1` (stereo not drawn) [Example 34] here?
The IC50 was 9600 nM.

How did the IC50 turn out when `N#CN=C(NCc1ccncc1)N1CCN(C2c3ccc(Cl)cc3CCc3cc(Br)cnc32)CC1` (stereo not drawn) [Example 43] was run?
The IC50 was 11 nM.

How did the IC50 turn out when `CN(C)CCCNC(=NC#N)N1CCC(=C2c3ccc(Cl)cc3CCc3cc(Br)cnc32)CC1` [Example 45] was run?
Its IC50 is 74 nM.

Which IC50 does the source give for `N#CN=C(Nc1ccc2ncccc2c1)N1CCC(=C2c3ccc(Cl)cc3CCc3cc(Br)cnc32)CC1` [Example 46] here?
Its IC50 is 150 nM.

Which IC50 does the source give for `N#CN=C(Nc1ccc2c(c1)COCO2)N1CCC(=C2c3ccc(Cl)c(Br)c3CCc3cccnc32)CC1` [Example 47] here?
The IC50 was 14 nM.

How did the IC50 turn out when `N#C/N=C(\Nc1ccc([N+](=O)[O-])cc1)N1CCC(=C2c3ccc(Cl)cc3CCc3cc(Br)cnc32)CC1` [Example 48] was run?
The IC50 was 64 nM.

How did the IC50 turn out when `N#CN=C(Nc1cc[n+]([O-])cc1)N1CCC(=C2c3ccc(Cl)cc3CCc3cc(Br)cnc32)CC1` [Example 49] was run?
The IC50 was 13 nM.

With `Cn1c(NC(=NC#N)N2CCC(=C3c4ccc(Cl)cc4CCc4cc(Br)cnc43)CC2)cc(=O)n(C)c1=O` [Example 50] as the molecule, how does the IC50 read?
The IC50 was 300 nM.

How did the IC50 turn out when `N#CN=C(NCc1ccco1)N1CCC(=C2c3ccc(Cl)cc3CCc3cc(Br)cnc32)CC1` [Example 51] was run?
Its IC50 is 73 nM.

Which IC50 does the source give for `N#CN/C(=N/Cc1ccc2c(c1)OCO2)N1CCC(=C2c3ccc(Cl)cc3CCc3cc(Br)cnc32)CC1` [Example 52] here?
Its IC50 is 24 nM.

`N#CN=C(NCc1ccc(N)cc1)N1CCC(=C2c3ccc(Cl)cc3CCc3cc(Br)cnc32)CC1` [Example 53] was tested. Which IC50 did it give?
The IC50 was 87 nM.

How did the IC50 turn out when `N#CN/C(=N/c1ccncc1)N1CCC(=C2c3ccc(Cl)cc3CCc3cc(Br)cnc32)CC1` [Example 54] was run?
The IC50 was over 110 nM.

For `N#CN=C(Nc1ccc2c(c1)OCCO2)N1CCC(=C2c3ccc(Cl)cc3CCc3cc(Br)cnc32)CC1` [Example 55], which IC50 is on record?
Its IC50 is 110 nM.

Which IC50 does the source give for `CSC(=NC#N)N1CCC(=C2c3ccc(Cl)c(Br)c3CCc3cc(Br)cnc32)CC1` [Example 56] here?
The IC50 was 42 nM.

Which IC50 does the source give for `CS(=O)(=O)c1ccc(N/C(=N\C#N)N2CCC(=C3c4ccc(Cl)cc4CCc4cc(Br)cnc43)CC2)cc1` [Example 59] here?
Its IC50 is 87 nM.

With `N#CN=C(NCc1ccncc1)N1CCC(=C2c3ccc(Cl)c(Br)c3CCc3cc(Br)cnc32)CC1` [Example 61] as the molecule, how does the IC50 read?
Its IC50 is 5 nM.

`COc1ccc2[nH]cc(CCNC(=NC#N)N3CCC(=C4c5ccc(Cl)cc5CCc5cc(Br)cnc54)CC3)c2c1` [Example 64] was tested. Which IC50 did it give?
The IC50 was over 950 nM.

For `CSC(=NC#N)N1CCC(=C2c3ccc(Cl)c(Br)c3CCc3cc(Br)cnc32)CC1` [Example 66], which IC50 is on record?
Its IC50 is 14 nM.

`N#CN=C(NCc1ccncc1)N1CCC(C2c3ccc(Cl)c(Br)c3CCc3cc(Br)cnc32)CC1` (stereo not drawn) [Example 67] was tested. Which IC50 did it give?
The IC50 was 1.7 nM.

With `N#CN=C(NCCCN1CCCC1=O)N1CCC(C2c3ccc(Cl)c(Br)c3CCc3cc(Br)cnc32)CC1` (stereo not drawn) [Example 68] as the molecule, how does the IC50 read?
The IC50 was 7 nM.

How did the IC50 turn out when `N#CN=C(NCCOCCO)N1CCC(C2c3ccc(Cl)c(Br)c3CCc3cc(Br)cnc32)CC1` (stereo not drawn) [Example 69] was run?
The IC50 was 3.7 nM.

Which IC50 does the source give for `N#CN=C(NCc1ccc2c(c1)OCO2)N1CCC(=C2c3ccc(Cl)c(Br)c3CCc3cc(Br)cnc32)CC1` [Example 72] here?
The IC50 was over 100 nM.

For `CSC(=NC#N)N1CCC(=C2c3ccc(Cl)cc3CCc3cc(Br)cnc32)CC1` [Example 73], which IC50 is on record?
The IC50 was 26 nM.

Which IC50 does the source give for `N#CN=C(NCc1ccc(S(N)(=O)=O)cc1)N1CCC(=C2c3ccc(Cl)c(Br)c3CCc3cc(Br)cnc32)CC1` [Example 74] here?
Its IC50 is 15 nM.

Which IC50 does the source give for `N#CN=C(NCc1cccnc1)N1CCC(=C2c3ccc(Cl)c(Br)c3CCc3cc(Br)cnc32)CC1` [Example 75] here?
The IC50 was 4.8 nM.

With `N#CN=C(NCC1CCNCC1)N1CCC(=C2c3ccc(Cl)c(Br)c3CCc3cc(Br)cnc32)CC1` [Example 76] as the molecule, how does the IC50 read?
Its IC50 is 4.7 nM.

With `N#CN=C(NCC1CCN(C(N)=O)CC1)N1CCC(=C2c3ccc(Cl)c(Br)c3CCc3cc(Br)cnc32)CC1` [Example 77] as the molecule, how does the IC50 read?
Its IC50 is 4.4 nM.

With `N#CN=C(NCc1ccncc1)N1CCC(=C2c3ccc(Cl)cc3CCc3cccnc32)CC1` [Example 78] as the molecule, how does the IC50 read?
The IC50 was 64 nM.

For `N#CN=C(Nc1ccc(N2CCOCC2)cc1)N1CCC(=C2c3ccc(Cl)c(Br)c3CCc3cc(Br)cnc32)CC1` [Example 80], which IC50 is on record?
Its IC50 is 38 nM.

How did the IC50 turn out when `N#CN=C(NCc1ccc[n+]([O-])c1)N1CCC(=C2c3ccc(Cl)c(Br)c3CCc3cc(Br)cnc32)CC1` [Example 81] was run?
Its IC50 is 4.6 nM.

For `N#CN=C(c1ccncc1)N1CCC(C2c3ncc(Br)cc3CCc3cc(Cl)cc(Br)c32)CC1` (stereo not drawn) [Example 83], which IC50 is on record?
Its IC50 is over 33 nM.

From patent US5925648A, “Tricyclic N-cyanoimines useful as inhibitors of a farnesyl-protein transferase” (Schering Corporation, priority 1997, dated 1999)
